“Also recorded” adds a separate entry of the source.
What was measured:
Type in all cases: in vivo
[1] = system: amphetamine-induced hyperactivity in mice; experiment: Amphetamine-induced hyperactivity and stereotypic behavior
Source text: The amphetamine-induced hyperactivity and motility is one of the most popular animal models for schizophrenia (Pouzet B, et al., Effects of the 5-HT(7) receptor antagonist SB-258741 in animal models for schizophrenia. Pharmacol Biochem Behav April; 71(4):655-665, 2002 and Geyer, et al., Animal behavior models of the mechanisms underlying antipsychotic atypicalicity, Progress in Neuro-Psychopharmacol & Biological Psychiatry, 27, 1071-79, 2003). Amphetamines are known to augment dopaminergic and noradrenergic neurotransmission by inducing catecholamine release and preventing catecholamine reuptake
The experiment was conducted with ICR male mice placed in individual barrels. […] The locomotor activity, number of rearings and head movements was recorded every 15 minutes for 2 h.
As stated above, the amphetamine-induced hyperactivity and motility is one of the most popular animal models for schizophrenia. The experiment was conducted with ICR male mice placed in individual barrels. Compound 1 (20 mg/kg) was administered p.o to the mice 1 hr prior to i.p. administration of amphetamine (2. mg/kg). The hyper-active behavior expressed by the number of climbings and rearings and the stereotypic behavior expressed by the number of head movements was recorded every 15 minutes over a period of 1 h.
The effect of Compound 3 (12.5, 25 and 50 mg/kg, i.p.) on amphetamine-induced hyperactivity in Balb/c mice was also examined. Animals (6 per group) were injected with Compound 3 (12.5, 25 and 50 mg/kg) and 30 minutes later received amphetamine (2 mg/kg ip). After 30 minutes, animals were exposed to an open field test for a period of 20 minutes.

[2] = system: MK-801-induced hyperactivity in mice; experiment: MK-801-induced hyperactivity in open field
Protocol: MK-801-Induced Stereotype Behavior in Rats (in Open Field)—
MK-801 is an analogue of PCP which inhibits NMDA receptors and elicits hyperlocomotion and stereotypic behavior in rodents and is used as an animal model of schizophrenia (Stephen, et al., Topiramate antagonizes MK-801 in an animal model of schizophrenia, Eur. J. Pharmacol. 449, 2002, 121-5). For experimentation, naïve Balb/c mice were used. MK-801 (0.15 mg/kg i.p) was administered 40 minutes after Compound 1 (or any one of the other compounds of the invention) or a vehicle, and 20 minutes prior to placing the mouse in an open field.
Animals placed in the open field were followed for 60 minutes and their distance moved, velocity, duration of immobility, and number of rearing events were registered using the Noldus system.
As stated above, MK-801 inhibits NMDA receptors and elicits hyperlocomotion. Therefore, where an antagonism of the hyperactivity-induced by the MK-801 is observed upon administration of a compound of the invention, it is an indication as to the positive modulation of the NMDA activity. In other words, such a compound may be considered as useful in the treatment of schizophrenia.
The effect of Compound 6 on the distance moved in Balb/c mice exposed to MK-801 ([…]) i.p. and to Compound 6 (up to 12.5 mg/kg, i.p.) administered 1 hr prior to MK-801 was also tested.
As stated above, MK-801 (an NMDA receptor antagonist) is a widely accepted animal model for schizophrenia. The experiment was conducted with Balb/c male mice (Harlan Il), 6 per group. Compound 1 (50 mg/kg) was administered i.p. (1 hr before experimentation), to mice alone or combined with MK-801 (0.15 mg/kg, i.p.) administered 20 minutes prior to placing the mice individually in an open field for 60 minutes. The hyper-active behavior expressed by hyperlocomotion, velocity, strong mobility, number of rearing was evaluated using the Noldus system, each point represents the mean+/−6 determinations.

mice [3] = experiment: Open field exploratory locomotor activity
Source text: Open Field Exploratory Locomotor Activity
The procedure consists of subjecting an animal, usually a rodent, to an unknown large environment from which escape is prevented by surrounding walls. The open field test is now one of the most popular procedures in animal psychology (Crawley, et al., Exploratory behavior models of anxiety in mice, Neurosci Biobehav Rev 9 (1985), pp. 37-44). The procedure involves forced confrontation of a rodent with the situation. The animal is placed in the center or close to the walls of the apparatus and the following behavioral items are recorded for a period ranging from 5 to 20 minutes: horizontal locomotion, and frequency of rearing or leaning. In such a situation, rodents spontaneously prefer the periphery of the apparatus to activity in the central parts of the open field. Increase in time spent in the central part as well as of the ratio central/total locomotion or decrease of the latency to enter the central part are indications of anxiolysis.
In a typical test, an individual mouse was placed in a novel environment of a square open field (50×50 cm), the floor of which had been divided into 3 areas, as shown below. The area within 10 cm of the chamber walls was termed the periphery. […] One hour after drug administration, the animal was placed in the same corner of the field. The animal behavior in the open field was recorded by videotaping for 20-60 minutes and analyzed subsequently digitally using the Noldus software for animal behavior. The measurements included velocity, distance moved, frequency of visits to the central area, number of rearing events.
The effect of Compound 1 on the behavior of mice in the open field and the dose-dependent effect following i.p administration were evaluated. Naïve male Mice (Balb/c, Harlan Israel) were used. The animals, divided 3 to 5 animals per group, were administered with Compound 1 (12.5, 25, 50, 75 and 100 mg/kg) 1 hr prior to placing each in an open field. Mice were monitored for 1 hr (every 5 minutes) using the Noldus system, and their distance moved, velocity, time of immobility and number of rearings was recorded.
(§1) The effect of Compound 6 on the behavior of mice in the open field was also examined. Naïve male mice (Balb/c, Harlan Israel) were used. Animals (6 per group) were administered with Compound 6 (12.5, 25 and 50 mg/kg, i.p.) 1 hr prior to placing each in the open field. Mice were followed for 1 hr (every 5 minutes) using the Noldus system, and their distance moved, velocity, time of immobility and number of rearings was recorded.
The effect of oral administration of Compound 1 in the open field was tested by orally administering to male ICR mice varying amounts of Compound 1 (5, 10 and 20 mg/kg) or vehicle. Animals were placed in the open field 1 hr after drug administration and horizontal and vertical behavior was recorded for 20 minutes.
as §1, with “The dose-dependent” for “The”, “3 administered i.p.” for “6 on the behavior of mice”, “tested.” for “examined.”, “Animals” for “Animals (6 per group)”, “3” for “6”, “i.p., 6 per group)” for “i.p.)”
Animals were administered orally with Compound 1 (5, 10 and 20 mg/kg) or with a vehicle. Animals were placed in the open field 1 hr after drug administration and animal track was registered for 20 minutes. The time spent in the center (zone 3) and the frequency to the center were indicators of anxiety.

mice [4] = experiment: Forced swim test (FST); settings: male ICR mice, 20 mg/kg oral
Source text: This is one of the most widely used tools for screening antidepressant activity pre-clinically in acute treatment. The test was first described by Porsolt et al., (Behavioral despair in mice: a primary screening test for antidepressants. Arch. Int. Pharmacodyn. Ther. 229, pp. 327-336, 1977). The FST test is based on the observation that rats and mice develop an immobile posture when placed in an inescapable cylinder of water. This behavior is considered a behavioral despair as opposed to active form of coping with stressful conditions. The FST test is considered a good screening tool with good reliability and predictive validity.
Three parameters were defined in the evaluation of FST:
1. Immobility—defined in the traditional Porsolt test as when no additional activity is observed other than that required to keep the animal's head above water;
2. Swimming behavior—being the movement (usually horizontal) throughout the chamber that also includes crossing into another quadrant;
3. Climbing behavior—being defined as the upward-directed movements (vertical) of the forepaws along the side of the swim chamber.
The test in mice was conducted acutely (60-90 minutes post oral drug administration) and animals were dropped to the cylinder for 6 minutes and scoring was performed in the last 4 minutes after 2 minutes of adaptation.
Round glass cylinders, 18 cm in diameter and 20 cm deep were used. Water temperature was 24-28° C. Four parameters were taken: immobility, velocity, distance and strong mobility. The immobility in the animals was defined by activity lower than 10% movement of the center of gravity of the animal. Swimming was defined by the distance and the velocity of the animal, and climbing was related to strong mobility (movement of center of gravidance more than 30%).
Males Balb/c mice (Harlan Israel) were used. Animals were administered orally with Compound 1 (10 or 20 mg/kg) or with a vehicle.
Males ICR mice were used.

mice [5] = experiment: Elevated plus maze; settings: male Balb/c mice, oral, diazepam 1 mg/kg
Source text: The elevated plus maze is a widely used method to test anxiety in rodents (Pellow, et al., Pharmacol. Biochem. Behav., 24, 525-529 (1986)). The apparatus was made of wood and painted black, with two opposing open arms and two opposite enclosed arms of the same size. The arms were attached to a central square shaped in a plus sign. The whole apparatus was placed 50 cm above the floor. Anxious animals refrain from entering the open arm and prefer the closed arm.
In a typical experiment, Balb/c male mice were administered orally with 10 and 20 mg/kg of Compound 1 or Compound 6 and with a vehicle or with diazepam (1 mg/kg) administered per os (p.o.) 90 minutes before they were placed in the center of the maze. The frequency to the open aims, the time spent in the different arms, the velocity and number of rearings of the animals in each zone were recorded (Noldus).
Male Balb/c mice were used. Animals were transferred to the behavior room 24 hr before the experiment. Compound 1 or diazepam were administered orally 90 minutes before testing. Each treatment group included 5 animals.
Male Balb/c mice were used. Animals were transferred to the behavior room 24 hr before the experiment. Compound 6 (3, 9, or 27 mg/kg) or vehicle were administered orally 90 minutes before testing. Each treatment group included 5 animals.

[6] = Balb/c mice, 12.5, 25 and 50 mg/kg i.p.

Compound: COC(=O)C(N)COCN1CCN(C2=Nc3ccccc3Nc3sc(C)cc32)CC1 (stereo not shown) [Compound 3]
- distance moved, combined with amphetamine ([1]; Balb/c mice, 12.5 mg/kg i.p.): normalization
- distance moved, combined with amphetamine ([1]; Balb/c mice, 12.5, 25 and 50 mg/kg i.p. at -60 minutes): dose-dependent decrease
- immobility, combined with amphetamine ([1]; Balb/c mice, 12.5, 25 and 50 mg/kg i.p., amphetamine 2 mg/kg ip): dose-dependently increased
- effect of amphetamine (hypermotility) ([1]; Balb/c mice, 12.5, 25 and 50 mg/kg i.p., amphetamine 2 mg/kg ip 30 minutes later, open field 20 minutes): dose-dependently antagonized
- hyperactivity ensued by amphetamine ([1]; Balb/c mice, already at 12.5 mg/kg i.p., 12.5 mg/kg): effective; also recorded: antagonized
- distance moved, combined with amphetamine ([1]; Balb/c mice, doses higher than 12.5 mg/kg i.p.): marked decrease
- MK-801-induced hyperactivity ([2]; Balb/c mice, 7.5 mg/kg): slight effect
- MK-801-induced hyperactivity ([2]; Balb/c mice, 25 mg/kg): normalization of activity
- MK-801-induced hyperactivity ([2]; Balb/c mice, 50 mg/kg): sedation
- MK-801-induced hyperactivity (distance moved) ([2]; Balb/c mice, 12.5, 25 and 50 mg/kg i.p., MK-801 0.15 mg/kg i.p.): dose dependent decrease
- immobility (“not moving” total duration), MK-801 treated ([2]; Balb/c mice, high dose): appeared
- frequency to the center of the field, MK-801 treated ([2]; Balb/c mice, low dose): tended to increase
- time spent in the center, MK-801 treated ([2]; Balb/c mice, low dose): tended to increase
- immobility (“not moving” total duration), MK-801 treated ([2]; Balb/c mice, small and intermediate doses (25 mg/kg)): not found
- motility parameters (mice [3]; Balb/c mice, 50 mg/kg i.p.): marked decrease
- duration of “not moving” periods (mice [3]; [6]): dose dependently increased
- number of rearings vs. controls (mice [3]; [6]): decreased
- motility (distance moved and velocity) (mice [3]; Balb/c mice, up to 25 mg/kg i.p.): mild decrease

Compound: Cc1cc2c(s1)Nc1ccccc1N=C2N1CCN(C)CC1 [olanzapine, reference compound]
- distance moved (mice [4]): significantly decreased
- immobility (mice [4]): increased
- strong mobility (climbing) (mice [4]): significantly decreased
- velocity (mice [4]): significantly decreased

Compound: CN1C(=O)CN=C(c2ccccc2)c2cc(Cl)ccc21 [diazepam, reference compound]
- number of rearings in the center (mice [5]): significantly increased
- number of rearings in the open arm (mice [5]): increased number of rearings
- velocity (mice [5]): higher
